Drawing on US6831196B2, “Urokinase inhibitors” (Curacyte AG, priority 2000, dated 2004), this text covers Ki for 10 compounds.

Where a name gives a salt, the structure may show the parent alone.

For the experiment, the target named is sc-urokinase (Homo sapiens, UniProt P00749). Kind of experiment: Inhibiting urokinase: chromogenic substrate Bz-βAla-Gly-Arg-pNA, Ki by Dixon. The format is biochemical. Conditions: 25° C., pH 8.0, mean of at least three determinations. An excerpt: Inhibiting urokinase with selected compounds in which Y=amidino
Determining the inhibitory effect:
The Ki values are the mean of at least three determinations.
Usually Ki stands for the dissociation constant of the complex between target and ligand, obtained from inhibition or displacement. High values mean weaker binding, low ones tighter binding. Consider `N=C(N)c1cccc(CNC(=O)CNC(=O)[C@@H](COCc2ccccc2)NS(=O)(=O)Cc2ccccc2)c1` [Bz—SO2, D, CH2—O—Bz, H, CH2, 3], for which the Ki is above 1000 µM.

In the case of `CC(C)(C)OC(=O)N[C@@H](CO)C(=O)NCC(=O)NCc1ccc(C(=N)N)cc1` [Boc, L, CH2—OH, H, CH2, 4], the affinity corresponds to a Ki of 23 µM.

Regarding `N=C(N)c1ccc(CNC(=O)CNC(=O)[C@@H](COCc2ccccc2)NS(=O)(=O)Cc2ccccc2)cc1` [Bz—SO2, D, CH2—O—Bz, H, CH2, 4, Benzylsulfonyl-D-Ser(Bz)-Gly-4-amidinobenzyl-amide×TFA], the Ki turned out to be 0.84 µM.

`CC(C)(C)OC(=O)N[C@H](COCc1ccccc1)C(=O)NCC(=O)NCc1cccc(C(=N)N)c1` [Boc, D, CH2—O—Bz, H, CH2, 3] showed a Ki above 1000 µM.

`N=C(N)c1cccc(CNC(=O)CNC(=O)[C@H](N)COCc2ccccc2)c1` [H, D, CH2—O—Bz, H, CH2, 3] yielded a Ki above 1000 µM.

`N=C(N)c1ccc(CNC(=O)CNC(=O)[C@@H](CO)NS(=O)(=O)CC2CCCCC2)cc1` [CMe—SO2, D, CH2—OH, H, CH2, 4] came in with an inhibition constant (Ki) of 0.048 µM.

In turn, `CC(C)COC(=O)OC[C@@H](NS(=O)(=O)Cc1ccccc1)C(=O)NCC(=O)NCc1ccc(C(=N)N)cc1` [Bz—SO2, D, CH2—O—COO-iBu, H, CH2, 4, Benzylsulfonyl-D-Ser(COO-isobutyl)-Gly-4-amidino-benzylamide×HCl] displayed a Ki of 0.5 µM.

For the compound `N=C(N)c1ccc(CNC(=O)CNC(=O)[C@@H](N)CO)cc1` [H, L, CH2—OH, H, CH2, 4], the Ki is 21 µM.

Take `N=C(N)c1ccc(CNC(=O)CNC(=O)[C@H](N)CO)cc1` [H, D, CH2—OH, H, CH2, 4]: the inhibitory constant (Ki) was 12 µM.

Regarding `COC(=O)OC[C@@H](NS(=O)(=O)Cc1ccccc1)C(=O)NCC(=O)NCc1ccc(C(=N)N)cc1` [Bz—SO2, D, CH2—O—COO—CH3, H, CH2, 4], affinity was put at a Ki of 0.39 µM.
